# Results taken from paper PMC8746798, “Evaluation of 2-Thioxoimadazolidin-4-one Derivatives as Potent Anti-Cancer Agents through Apoptosis Induction and Antioxidant Activation: In Vitro and In Vivo Approaches” (Molecules, 2021).
# Legend:
# [1] = system: THLE-2 normal liver cells; assay: MTT assay, normal liver cells; format: cell-based; conditions: Homo sapiens, THLE-2, mean ± SE, n = 3
# [2] = Serum biochemical parameters in mice; format: in vivo; conditions: 6 mg/Kg BW
# Description: (§1) We randomly divided 50 mice into groups 5 groups (10 mice in each group): normal control (I) (mice injected intraperitoneally with the same volume of solvent for 14 consecutive days); group II, a group of normal mice treated with compound 4 (mice injected intraperitoneally with newly produced compound 4 at a dose of 6 mg/kg per day for 14 days); group III, solid tumor group (mice were implanted with solid tumor); group IV, group were treated with 5-FU (after 10 days of tumor implantation, mice were treated with 6 mg/kg only once); and group V, solid tumor group were treated with compound 4 (after 10 days of tumor implantation, mice were treated with 6 mg/kg only once). after one day of the previous treatment, 10 mice from each group were sacrificed and tumor weight, tumor volume (length and width of solid femoral tumor), blood and liver samples were obtained from each group. A portion of each blood sample taken was used for complete blood count (CBC) and the rest was centrifuged to obtain the serum. Serum was used for biochemical parameter estimation. The livers were rapidly dissected, washed with isotonic saline, and dried. The experiment design is summarized in Supplementary Figure S3.
# Evaluation of the activities of aspartate aminotransferase (AST) and alanine aminotransferase (ALT) using a commercial kit (ELITech Clinical Systems, France). The serum albumin level was measured using a kit obtained from STANBIO Company (USA). A commercial kit from the BioDiagnostic Company (Cairo, Egypt) was used to evaluate creatinine and urea levels.
# [3] = Hematological parameters (CBC) in mice; format: in vivo; conditions: 6 mg/Kg BW; for Hemoglobin: mean ± SE n = 9
# Description: as §1
# Complete blood counts (CBCs) were counted using an AbbottCELLDYN®1800 Automated Hematology Analyzer (Abbott Park, IL, USA) equipped with an off-the-shelf kit (Abbott Laboratories, Abbott Park, IL, USA). For microscopic histopathological examination, tumor and kidney slices were maintained in 10% formalin, dehydrated with graduated alcohol, embedded in paraffin sections, H&E stained, and hematoxylin stained.
# [4] = Median lethal dose (LD50); conditions: mouse, in vivo, ip; mice, I.p., 24 h mortality
# Description: Adopting the procedure described by Finney, different known concentrations of the imidamide 4 were intraperitoneally injected into a group of eight mice (weight on average 21.1 g). […] This assay was carried out evaluate its dose-safety limit and select the dose to be used in the treatment.
# [5] = system: HepG2 cells; assay: Colony forming assay; format: cell-based, human; conditions: HepG2, 100 μM
# Description: HepG2 cells were allowed to attach to form a complete monolayer after seeding 200 cells per well (6-well plate) for 24 h. Five concentrations of compound 4 (0.01, 0.1, 1, 10, 100 µM) were added to the cultured cells, and cells were incubated for 48 h, followed by washing with PBS. After 7 days of incubation, the colonies were fixed and stained with 1% crystal violet in methanol for 3 h. Finally, the crystal violet stain was used for 20 min to stain and count the cells using the light microscope.
# [6] = Hepatic oxidant and antioxidant assessment; format: in vivo; conditions: liver homogenate, SEC-bearing mice, 6 mg/kg BW
# Description: as §1
# In liver tissue homogenate, a standard commercial kit (BioDiagnostic, Cairo, Egypt) was used to evaluate oxidation and antioxidant parameters according to its methodology, as previously published in Nafie et al., 2020 [57]. Lipid peroxidation (MDA) and nitric oxide (NO) are oxidants, while reduced glutathione (GSH), catalase (CAT), and superoxide dismutase (SOD) are antioxidants.
# [7] = system: HepG2 liver cancer cells; assay: MTT assay for cytotoxic screening, HepG2; format: cell-based, human; conditions: Homo sapiens, HepG2, 48 h, mean ± SE, n = 3
# Description: The in vitro anti-cancer activity was assessed using the MTT assay. […] Staurosporine and 5-FU were used as reference drugs. HepG2 cells (1 × 10^4 cells/well, 96-well plate) were maintained in DMEM media supplemented with 2mML-glutamine (Lonza, Verviers, Belgium) and 10% FBS (Sigma, St. Louis, MO, USA), 1% Penicillin/Streptomycin (Lonza, Verviers, Belgium) according to the routine culture work. Cultures were incubated for 48 h with serial dilutions (0.01, 0.1, 1, 10, 100 µM) of the tested compounds. Finally, cell viability was determined by measuring the absorbance λ570 nm according to the following formula: % of cell viability = (A sapmple/A control) ×100, then IC50 calculation was calculated using GraphPad Prism 7 software.
smiles,measurement,setting,value
"O=C1NC(=S)N(c2ccc(O)cc2)/C1=C/c1cccs1 [Compound 4, (E)-1-(4-Hydroxyphenyl)-5-(thiophen-2-ylmethylene)-2-thioxoimidazolidin-4-one]",IC50,[1],56.6 ± 1.5 µM
same,Creatinine,[2]; SEC-bearing mice,1.0 ± 0.1 mg/dL
same,Albumin,"[2]; SEC-bearing mice, SEC control 4.01 ± 0.4",3.43 ± 0.1 g/dL
same,Total Protein,"[2]; SEC-bearing mice, SEC control 6.6 ± 0.4",7.4 ± 0.2 g/dL
same,Urea,"[2]; SEC-bearing mice, SEC control 25.2 ± 2.3",27 ± 1.5 mg/dL
same,AST,"[2]; SEC-bearing mice, SEC control 48.9 ± 5.5",37.8 ± 8.4 U/L
same,ALT,"[2]; SEC-bearing mice, SEC control 50 ± 2.7",37.4 ± 10.4 U/L
same,Creatinine,"[2]; normal mice, normal control 1.6 ± 0.2",1.1 ± 0.2 mg/dL
same,Albumin,"[2]; normal mice, normal control 4.4 ± 0.4",4.4 ± 0.8 g/dL
same,Total Protein,"[2]; normal mice, normal control 6.9 ± 0.4",6.9 ± 1.5 g/dL
same,Urea,"[2]; normal mice, normal control 27.8 ± 2.6",28.13 ± 2.7 mg/dL
same,ALT,"[2]; normal mice, normal control 35.3 ± 3.8",43.25 ± 7.4 U/L
same,AST,"[2]; normal mice, normal control 37.4 ± 2.8",44.9 ± 10.8 U/L
same,RBC’s count,"[3]; SEC-bearing mice, SEC control 7.52 ± 0.5",9.3 ± 0.4 ×10^6/µL
same,Hemoglobin,"[3]; SEC-bearing mice, SEC control 11.8 ± 0.8",13.3 ± 0.7 g/dL
same,WBC’s count,"[3]; SEC-bearing mice, SEC control 16.5 ± 3.4",9.5 ± 1.9 ×10^3/µL
same,RBC’s count,"[3]; normal mice, normal control 8.8 ± 0.3",8.7 ± 0.4 ×10^6/µL
same,WBC’s count,"[3]; normal mice, normal control 9.4 ± 1.2",9.42 ± 1.3 ×10^3/µL
same,Hemoglobin,"[3]; normal mice, normal control 13.3 ± 0.7",12.6 ± 0.5 g/dL
same,LD50 at 24 h,[4],6 mg/kg
same,number of colonies,[5]; 464 in control,136
same,inhibition at 100 µM,"[5]; Homo sapiens, 48 h treatment, read-out: colony inhibition rate",~88%
same,GSH (antioxidant),[6]; SEC control 18.23,39.27 mg/g Tissue
same,CAT (antioxidant),[6]; SEC control 21.69,46.9 U/g Tissue
same,SOD (antioxidant),[6]; SEC control 27.36,48.69 U/g Tissue
same,NO (oxidative stress),[6]; SEC control 79.69,42.38 U/g Tissue
same,MDA (oxidative stress),"[6]; SEC control 98.39, n = 6",73.36 nmol/g Tissue
same,IC50,[7],0.017 ± 0.004 µM
